# Read-outs that look alike come from different tables or passages of the source.
# Columns and labels:
# [1] = tested on: CHIKV; assay: CHIKV cytopathic effect (CPE) inhibition test; format: cell-based, Chikungunya virus (CHIKV, strain Nic); details: Chikungunya virus, 120 h; CPE inhibition in Vero cells, 5 days, M ± SD; read-out: Antiviral Activity, EC50 ± SD, CHIKV
# [2] = tested on: SARS-CoV-2; assay: SARS-CoV-2 cytopathic effect (CPE) inhibition test; format: cell-based, strain PIK35; details: Severe acute respiratory syndrome coronavirus 2, 120 h; CPE inhibition in Vero cells, 5 days, M ± SD; read-out: Antiviral Activity, EC50 ± SD, SARS-CoV-2
# Text: (§1) The green monkey kidney (Vero) cell line originated from WHO Biologicals, Switzerland (10–87), and the Madin-Darby canine kidney (MDCK) cell line was obtained from the American Type Culture Collection (ATCC CCL-34).
# (§2) Viruses and strains used in the present work were severe acute respiratory syndrome-related coronavirus 2 (SARS-CoV-2, strain PIK35, GISAID EPI_ISL_428852), Chikungunya virus (CHIKV, strain Nic, GenBank IDs MN271691-2) and influenza A virus (H1N1, strain A/PR/8/34, ATCC VR-95).
# The procedure was described previously. In brief, two-fold dilutions of the compounds were prepared in Dulbecco MEM (Chumakov FSC R&D IBP RAS, Russia) and mixed 1:1 with a virus suspension containing 50–200 TCID50 and incubated for 1 h at 37 °C in a CO2 incubator. The final concentration series started from 100 μM. Then, compound-virus mixtures were added to confluent Vero cell monolayers in 2 replicates. After incubation at 37 °C in a CO2-incubator for 5 days, CPE signs (cell death) were assessed via microscope, and 50% effective concentration (EC50) (compound concentration required to decrease CPE by 50%) was calculated using the Karber method.
# [3] = tested on: IAV; assay: IAV virus yield reduction assay; format: cell-based, influenza A virus (H1N1, strain A/PR/8/34); details: Influenza A virus; virus yield reduction in MDCK cells, MOI 1, 24 h, M ± SD; read-out: Antiviral Activity, EC50 ± SD, IAV
# Text: as §1, §2
# Compound solutions were prepared in DMSO (20 mg/mL). The compounds were weighed in 2 mg amounts and dissolved in 100 μL of DMSO. Then, a series of 3-fold dilutions was prepared, starting from 300 µg/mL, in a cultural medium. The MDCK cell monolayer was treated with compound dilutions and incubated for 1 h in a CO2 incubator at 37 °C. Untreated cells were used as negative control. Afterward, the virus was added (MOI 1), and cells were incubated for 24 h at 37 °C in a CO2 incubator. After incubation, the culture medium was collected, and viral yields were determined by titration. In brief, a series of 10-fold dilutions (10^−7–10^−1) of viral supernatants were prepared in a cultural medium and applied to daily MDCK cell monolayers. Infected cells were incubated for 72 h at 37 °C in a CO2 incubator. The presence of the virus in the culture supernatants was determined using the hemagglutination assay with a 1% suspension of chicken erythrocytes. Viral titer was calculated according to the Reed-and-Muench method and was expressed as 50% tissue infectious doses (TID50) per 100 μL of volume. Inhibition (%) was calculated by comparison with non-treated cells, and EC50 was calculated from inhibitory curves.
# [4] = Cell viability assay in Vero cells (resazurin); format: cell-based; details: green monkey, 5 d, read-out: Cytotoxicity, CC50 ± SD, Vero
# Protocol: as §1
# Two-fold dilutions of the compounds (starting from 100 μM) were prepared in DMEM (Chumakov FSC R&D IBP RAS, Russia) and added to confluent cell monolayers. After 5 days of incubation (37 °C, 5% CO2), the cultural supernatant was substituted with a resazurin solution (25 μg/mL), followed by 4 h incubation (37 °C, 5% CO2). Then, 20 µL of 10% SDS were added to stop the reaction. Fluorescence intensity was measured with Promega GloMax-Multi Detection System (Ex525/Em580–640). Cells treated with dilutions of the compounds and DMSO, but not resazurin, were used to subtract the background fluorescence. All experimental procedures were performed in two replicates. Fluorescence curves were analyzed with Microsoft Excel 2013. 50% Cytotoxic concentrations (CC50) were calculated.
# [5] = Cell viability assay in MDCK cells (MTT); format: cell-based, canine; details: dog, read-out: Cytotoxicity, CC50 ± SD, MDCK
# Protocol: as §1
# Compound solutions were prepared in DMSO (20 mg/mL), and then 2-fold dilutions in cultural medium were prepared starting from 1000 μg/mL. One-day MDCK cell monolayers (over 95% confluency) in 96-well plates ([…]) were washed twice with serum-free alpha-MEM (Thermo-Fisher Scientific, USA) and treated with 100 μL of compound dilutions in 2 replicates. The plates were then incubated for 24 h at 37 °C in a CO2 incubator. Cell viability was assessed using the tetrazolium test (MTT, ApplyChem). Optical density was measured on a Wallac 1420 Victor2 microplate reader (Perkin Elmer, Ramsey, MN, USA) at 535 nm, then CC50 values were calculated.
# [6] = Solubility in water (photometry); format: physicochemical
# Protocol: The samples were dissolved in DMSO, diluted in series, and photometrically analyzed. The average molar absorption coefficient was calculated from the obtained optical densities of calibration solutions at the absorption maxima. Solubility values were determined as previously described by adding weighed amounts of compounds to distilled water followed by sonication (30 min), centrifugation (12,000 rpm, 10 min), and photometry.
# [7] = tested on: influenza A/California/7/09/MA virus; format: in vivo, BALB/c mice; details: for Average Life Expectancy (M ± SEM): BALB/c mice
# [8] = in vitro; format: in vitro ADME; details: bovine, 80% FBS in 0.05 M PBS pH 7.4, 37 °C, read-out: In vitro FBS half-life (t1/2)
# Protocol: In vitro stability of 10 was studied in Gibco FBS (Thermo-Fisher Scientific, USA) by following the reported procedure with minor modifications. A 10 mM solution of the compound in DMSO (20 μL) was added to 80% FBS in 0.05 M PBS (pH 7.4) at 37 °C to yield the final concentration of 200 μM. The assays were carried out in triplicate in a water bath at 37 °C. Samples (100 μL) were taken at 0, 15, 30, 45, 60, 90, 120, 180, 240, and 300 min and added to 400 μL acetonitrile in order to deproteinize the plasma. The samples were then shaken for 1 min and centrifuged at 37 °C at 15,000 rpm for 5 min. The supernatants were analyzed by HPLC (detection at 530 nm). AUC values were determined and averaged from three independent experiments. In vitro serum half-life (t1/2) was calculated using the equation t1/2 = 0.693/b, where b is the slope found by linear fitting of the negative natural logarithm of the fraction remaining (AUC0-300/AUC0) vs. incubation time.
# [9] = Stability in stomach acid-mimicking 0.16 M aqueous HCl (TLC); format: physicochemical
# Protocol: Since in vivo evaluation of the leader compound in mouse model involves intragastric administration, stability in stomach acid-mimicking 0.16 M aqueous HCl was assessed. The compound was stable, with slight signs of decomposition as determined by thin-layer chromatography (TLC) for at least 4 h, which exceeds the average residence time of drugs in the stomach. Then, stability in fetal bovine serum (FBS) was evaluated.
smiles,measurement,setting,value
"C[n+]1c(C=Cc2ccc3c4cccc5cccc(c6cccc2c63)c54)sc2ccccc21.[Cl-] [Compound 10, 3-Methyl-2-(2-(perylen-3-yl)vinyl)benzo[d]thiazol-3-ium chloride]",EC50,[1],0.99 ± 0.15 µM
same,EC50,[2],1.45 ± 0.95 µM
same,EC50,[3],22.7 ± 10 µM
same,CC50 at 5 days,[4],> 100 µM
same,CC50 at 24 h,[5],69 ± 27 µM
same,Solubility in water (in words),[6],substantial solubility
same,solubility at 30 min,"[6]; thermodynamic from solid, distilled water, sonication, centrifugation, photometry",11 mM
same,Average Life Expectancy (M ± SEM),[7]; 0.5 mg/kg intragastric,8.6 ± 1.0 days
same,Protective Index (PI),[7]; 0.5 mg/kg intragastric,11%
same,Average Life Expectancy (M ± SEM),[7]; 4.5 mg/kg intragastric,8.6 ± 1.2 days
same,Protective Index (PI),[7]; 4.5 mg/kg intragastric,22%
same,Weight loss (maximum),"[7]; mouse, in vivo",up to 21.3%
same,half-life at 200 μM,[8],2.78 h
same,"Stability in 0.16 M aqueous HCl, time stable with slight signs of decomposition",[9],at least 4 h

# Reference: publication PMC9610897, “Cationic Perylene Antivirals with Aqueous Solubility for Studies In Vivo” (Pharmaceuticals, 2022)
